Laboratory results taken from PMC11539229 (Antimicrobial Agents and Chemotherapy, 2024).
In brackets after ≈: the same amount, converted by molar mass. Where two headings read alike, the source gives them in different places.

How the values were obtained:
[1] = test system: Madin-Darby canine kidney-MDR1; assay: in vitro; type: in vitro ADME
Procedure: (§1) Studies were performed as described by Polli et al. ([31]), with minor modifications. GF120918 was used as the inhibitor of P-gp. Apical-to-basolateral and basolateral-to-apical transports were studied across MDR1-MDCKII cell monolayers in the absence and presence of the P-gp inhibitor GF120918, and the Papp (intrinsic apparent permeability) was estimated in both directions with or without inhibitor.

[2] = in vitro; type: in vitro ADME, canine; conditions: dog, MDCK-MDR1
Procedure: as §1

[3] = physchem; type: physicochemical
Procedure: Solubility assays were performed using a miniaturized shake flask method. Stock solutions (10 mM) of each test compound were used to prepare calibration standards (10–220 μM) in DMSO and to spike (1:50) duplicate aqueous samples of FaSSIF (simulating fasting state biorelevant media, pH 6.5) with a final DMSO concentration of 2%. After shaking for 2 h at 25°C, the solutions were filtered and analyzed by means of high-performance liquid chromatography with diode-array detection (HPLC-DAD) (Agilent 1200 Rapid Resolution HPLC with a diode array detector). Best-fit calibration curves were constructed using the calibration standards, which were used to determine the aqueous sample solubility ([32]).

[4] = molecular target: T1, P-glycoprotein (P-gp) (Homo sapiens, UniProt P08183); assay: Efflux ratio with and without P-gp inhibitor GF120918 in MDR1-MDCKII cells; type: in vitro ADME
T1 construct: expressed in transfected cells; host or cells: MDR1-MDCKII (Madin-Darby canine kidney cells expressing MDR1)
Procedure: The measured solubility in fasted state simulated intestinal fluid (FaSSIF) was high (Table 1). The permeability of GSK138 predicted from Madin-Darby canine kidney (MDCK) cells was also high (Table 1).
as §1

[5] = test system: M. tuberculosis H37Rv; type: in vivo, BALB/c mice
[6] = molecular target: hERG (Homo sapiens, UniProt Q12809); assay: hERG Qpatch; type: biochemical
Procedure: hERG activity was measured as previously described ([35]).

[7] = test system: M. tuberculosis H37Rv; assay: Extracellular MIC, broth dilution with resazurin; type: cell-based; conditions: Mycobacterium tuberculosis, read-out: Mtb MIC
Procedure: MICs against the H37Rv strain were determined by broth dilution assay in Middlebrook 7H9 medium supplemented with 10% ADC. After incubating at 37°C for 6 days, 25-µL resazurin solution (one tablet in 30-mL sterile PBS) was added to each well. Following incubation at 37°C for two additional days, the lowest concentration of drug that inhibited 90% of resazurin conversion compared to internal DMSO control wells with no drug added was used to define MIC values.

[8] = test system: M. tuberculosis H37Rv; assay: Acute murine model of intratracheal infection; type: in vivo, C57BL/6 mice; conditions: oral once daily for 8 days
[9] = type: in vitro ADME
Procedure: To assess the susceptibility of GSK138 to P450-mediated phase I metabolism, metabolic stability was determined during incubation in CD1 mouse, Sprague Dawley rat, beagle dog, and human liver microsomes.
Human and animal microsomes and compounds were pre-incubated at 37°C prior to addition of NADPH to final protein concentration of 0.5 mg/mL and a final compound concentration of 0.5 µM. Quantitative analysis was performed using specific liquid chromatography-tandem mass spectrometry (LC-MS/MS) conditions. The half-life, elimination rate constant, and intrinsic clearance (mL/min/g tissue) were determined. The well-stirred model was used to translate to in vivo CI values (mL/min/kg).

[10] = physchem
[11] = test system: HepG2 cells; assay: Cell health assay (three-parameter imaging); type: cell-based, human
Procedure: This is a three-parameter automated imaging cell-based assay to measure the cytotoxic effect of compounds in human liver-derived HepG2 cells. Using fluorescent staining, we measured the following key parameters in this assay: nuclear size, mitochondrial membrane potential and plasma membrane permeability. HepG2 cells (ATCC HB-8065) were incubated with the test compounds in 384-well plates. After 48 h, the staining cocktail was added. Hoechst 33342 was used to stain nuclei and quantify changes in nuclear morphology. Tetramethylrhodamine, methyl ester is a cationic dye that accumulates in healthy mitochondria that maintain a mitochondrial membrane potential and leaks out of mitochondria when the mitochondrial membrane potential is dissipated. TOTO-3 iodide labels nuclei of permeabilized cells and is used to measure plasma membrane permeability. Following 45 min of incubation with these stains, the plates were sealed using a black seal for reading on an INCell Analyzer 2000 (GE Healthcare). Each parameter measurement produces the percentages of cells which are “live” or “dead.” The IC50 is defined as the compound concentration that inhibits 50% of cell growth.

[12] = molecular target: recombinant InhA (Mycobacterium tuberculosis, UniProt P9WGR1); assay: Inhibition of recombinant InhA; type: biochemical, M. tuberculosis
Procedure: GSK138 inhibited recombinant InhA with an IC50 of 0.04 µM. The minimum inhibitory concentration (MIC) was 1 µM against M. tuberculosis H37Rv, and GSK138 retained its activity against intracellular bacteria growing inside THP-1-derived macrophages in vitro (MIC 0.9 µM).

T1 sequence (P08183 whole entry): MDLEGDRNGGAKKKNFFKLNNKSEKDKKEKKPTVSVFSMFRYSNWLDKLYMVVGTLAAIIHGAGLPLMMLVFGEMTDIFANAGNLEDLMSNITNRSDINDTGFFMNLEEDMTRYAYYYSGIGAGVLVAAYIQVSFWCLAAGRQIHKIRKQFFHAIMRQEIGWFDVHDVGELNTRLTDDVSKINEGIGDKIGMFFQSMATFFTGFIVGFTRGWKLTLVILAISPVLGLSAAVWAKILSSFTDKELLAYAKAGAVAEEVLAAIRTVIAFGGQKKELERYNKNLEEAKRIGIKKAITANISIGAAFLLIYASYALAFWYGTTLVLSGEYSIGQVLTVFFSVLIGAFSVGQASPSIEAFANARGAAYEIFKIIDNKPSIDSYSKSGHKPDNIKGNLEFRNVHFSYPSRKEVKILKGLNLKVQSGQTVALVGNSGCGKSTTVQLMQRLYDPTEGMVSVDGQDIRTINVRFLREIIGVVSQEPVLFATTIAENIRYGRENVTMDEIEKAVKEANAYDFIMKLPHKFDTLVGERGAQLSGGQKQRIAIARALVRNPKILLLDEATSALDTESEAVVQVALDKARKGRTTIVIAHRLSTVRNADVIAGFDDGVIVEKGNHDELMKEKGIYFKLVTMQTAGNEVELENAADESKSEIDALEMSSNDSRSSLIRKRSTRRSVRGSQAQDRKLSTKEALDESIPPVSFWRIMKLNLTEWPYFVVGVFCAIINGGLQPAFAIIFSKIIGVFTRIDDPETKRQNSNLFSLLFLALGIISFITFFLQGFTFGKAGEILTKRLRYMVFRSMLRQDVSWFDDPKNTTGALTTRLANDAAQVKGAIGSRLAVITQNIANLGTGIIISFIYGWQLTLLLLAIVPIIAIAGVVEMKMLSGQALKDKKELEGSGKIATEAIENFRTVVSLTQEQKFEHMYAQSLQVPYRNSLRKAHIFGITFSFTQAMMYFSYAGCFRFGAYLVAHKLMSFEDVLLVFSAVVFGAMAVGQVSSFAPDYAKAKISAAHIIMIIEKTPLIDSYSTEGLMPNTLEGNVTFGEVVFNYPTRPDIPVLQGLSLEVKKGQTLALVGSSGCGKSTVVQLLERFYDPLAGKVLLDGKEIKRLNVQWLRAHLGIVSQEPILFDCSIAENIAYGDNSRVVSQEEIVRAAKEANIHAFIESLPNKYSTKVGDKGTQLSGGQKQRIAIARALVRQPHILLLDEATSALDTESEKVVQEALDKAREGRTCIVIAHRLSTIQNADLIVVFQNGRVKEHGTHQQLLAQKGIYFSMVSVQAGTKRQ
recombinant InhA, sequence (P9WGR1 whole entry, looked up): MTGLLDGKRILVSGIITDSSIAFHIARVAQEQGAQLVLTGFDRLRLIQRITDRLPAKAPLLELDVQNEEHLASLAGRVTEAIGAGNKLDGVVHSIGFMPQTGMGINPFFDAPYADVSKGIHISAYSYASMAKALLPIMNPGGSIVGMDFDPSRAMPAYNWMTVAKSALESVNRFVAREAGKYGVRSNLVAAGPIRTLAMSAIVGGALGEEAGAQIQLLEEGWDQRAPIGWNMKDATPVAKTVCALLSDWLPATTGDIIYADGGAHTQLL
hERG, sequence (Q12809 whole entry): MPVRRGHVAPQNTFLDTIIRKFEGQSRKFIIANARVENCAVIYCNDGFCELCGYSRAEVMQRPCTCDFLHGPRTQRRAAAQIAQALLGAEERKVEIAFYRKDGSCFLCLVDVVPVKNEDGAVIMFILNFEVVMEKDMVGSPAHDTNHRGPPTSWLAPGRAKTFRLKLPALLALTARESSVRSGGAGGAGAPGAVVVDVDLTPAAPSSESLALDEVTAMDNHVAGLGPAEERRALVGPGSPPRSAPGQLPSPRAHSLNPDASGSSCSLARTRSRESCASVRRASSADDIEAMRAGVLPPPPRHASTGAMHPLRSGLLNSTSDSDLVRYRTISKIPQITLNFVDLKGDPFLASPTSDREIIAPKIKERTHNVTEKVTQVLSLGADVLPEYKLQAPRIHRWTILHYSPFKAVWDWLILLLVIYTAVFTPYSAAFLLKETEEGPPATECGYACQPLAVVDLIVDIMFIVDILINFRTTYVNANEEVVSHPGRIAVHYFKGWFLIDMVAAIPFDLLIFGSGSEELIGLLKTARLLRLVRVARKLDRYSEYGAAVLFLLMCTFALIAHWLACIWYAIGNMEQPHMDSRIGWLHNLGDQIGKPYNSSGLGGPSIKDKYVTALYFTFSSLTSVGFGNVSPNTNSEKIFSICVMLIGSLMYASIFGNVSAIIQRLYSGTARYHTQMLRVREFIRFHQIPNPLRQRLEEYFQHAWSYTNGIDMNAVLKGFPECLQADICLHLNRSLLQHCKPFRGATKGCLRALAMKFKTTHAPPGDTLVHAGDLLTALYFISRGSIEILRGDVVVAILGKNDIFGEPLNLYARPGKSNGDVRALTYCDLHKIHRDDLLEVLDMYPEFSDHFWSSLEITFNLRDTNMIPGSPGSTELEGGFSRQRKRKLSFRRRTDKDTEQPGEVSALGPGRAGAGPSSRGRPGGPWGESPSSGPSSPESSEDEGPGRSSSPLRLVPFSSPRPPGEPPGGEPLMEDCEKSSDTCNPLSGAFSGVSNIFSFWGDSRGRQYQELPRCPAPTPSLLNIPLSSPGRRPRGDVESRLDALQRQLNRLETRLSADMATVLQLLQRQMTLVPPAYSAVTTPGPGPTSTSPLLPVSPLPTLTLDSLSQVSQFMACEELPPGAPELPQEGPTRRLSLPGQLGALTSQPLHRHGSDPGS

Cc1csc([C@](C)(O)c2nnc(Nc3cc(C)n(Cc4csc(C)n4)n3)s2)n1 [GSK138]
permeability predicted from MDCK cells [1]: high
Papp [2]: 37.4 ×10⁻⁶ cm/s
solubility in FaSSIF [3]: high
solubility at 2 h ([3]; pH 6.5): 140 to 320 µM (≈ 60.7 to 139 µg/mL)
P-gp substrate status from efflux ratio [4]: P-gp substrate
effect of addition to PaL, R + GSK656, or RZ + GSK656 ([5]; experiment 3, GSK138 200 mg/kg): did not significantly increase the activity
effect of addition to BPaL, BPa or BPa + GSK656 ([5]; experiment 3, GSK138 200 mg/kg, 4 weeks (P < 0.01) and 8 weeks (P < 0.0001)): significantly increased the activity
effect of addition to BPa ([5]; experiment 4, 8 weeks of treatment): additive effects
effect of addition to BPaL on bactericidal activity ([5]; experiment 5, 4 weeks of treatment): significantly increased the bactericidal activity
IC50 [6]: > 30 µM
MIC [7]: 1 µM (≈ 0.434 µg/mL)
effect on bacteria at the highest doses [8]: net killing of the bacteria
ED99 (dose producing a 2-log10 reduction in CFUs compared to untreated control mice) ([8]; 95% CI 50–67): 57 mg/kg
EDmax (dose at which 90% of the maximum bactericidal effect was achieved) ([8]; 95% CI 125 to >290): 167 mg/kg
in vitro clearance in liver microsomes ([9]; dog): moderate
in vitro clearance in liver microsomes ([9]; human): low
In vitro Clint dog ([9]; microsomes): 1.7 mL/min/g tissue
In vitro Clint human ([9]; microsomes): 0.3 mL/min/g tissue
In vitro Clint mouse ([9]; microsomes): 4.4 mL/min/g tissue
In vitro Clint rat ([9]; microsomes): 3.5 mL/min/g tissue
in vitro clearance in liver microsomes ([9]; mouse): moderate
in vitro clearance in liver microsomes ([9]; rat): moderate
chromatographic logD ([10]; pH 7.4, Chrom logD): 3.39
chromatographic logD ([10]; pH 7.4, chrom logD): 3.38
Cell health IC50 (nuclear size, mitochondrial membrane potential, and plasma membrane permeability) ([11]; HepG2, 48 h): >199.5 µM
effect in the cell health assay ([11]; membrane, nuclear and mitochondrial damages): no effect up to the highest concentration tested (200 µM)
IC50 [12]: 0.04 µM
